Here are results for 17 compounds from patent US10100064B2, “Purine inhibitors of human phosphatidylinositol 3-kinase delta” (Merck Sharp & Dohme Corp., priority 2014, dated 2018).

For one assay, the target named is T1, PI3Kalpha (Homo sapiens, UniProt P42336).
T1 construct: purchased Upstate; Millipore 14-602
Kind of assay: HTRF PI3K biochemical assay, alpha isoform (selectivity versus delta). To be noted: relative ratio PI3K-alpha IC50 value / PI3K-delta IC50 value. An excerpt: (§1) HTRF PI3K Biochemical Assay to Measure Intrinsic Potency of Compound Inhibitors
(§2) The PI3-Kinase biochemical assays were developed to measure the intrinsic potency and compound dependent inhibition of the alpha, beta, delta, and gamma PI3K isoform enzymes. This assay was developed and further optimized from a kit produced by Upstate (Millipore catalog #33-047) and has been configured for HTS and SAR screening. Briefly, this procedure exploits the exquisite specificity and high affinity binding of […] phosphatidyl(3,4,5)triphosphate (PIP3) to the GRP1 pleckstrin homology (PH) domain to generate the signal. In the absence of PIP3, an HTRF (Homogeneous Time-Resolved Fluorescence energy transfer) complex is formed consisting of europium (Eu)-labeled anti-GST, GSTtagged GRP1-PH domain, biotin-PIP3 and streptavidin conjugated APC. The native PIP3 produced by PI3-Kinase activity disrupts in a competitive manner the biotin-PIP3 from the PH domain, resulting in the loss of energy transfer (HTRF complex) and a decrease in the signal. The format of this assay is the same for all 4 isoforms of PI3K; the differences lie in the concentration of enzyme used to achieve robust assay window. The alpha, beta, and delta assays are run at 0.5, 1, and 0.3 nM enzymes and the gamma assay is run at 5 nM enzyme. The ATP concentration is 100 uM in the alpha, beta, and delta assays and 50 uM ATP in the gamma assay. All reactions are run at 5 uM PIP2.
(§3) Compounds are serially diluted (3-fold in 100% DMSO) across a 384-well polypropylene source plated from column 3 to column 12 and column 13 to column 22, to yield 10 concentration dose response for each test compound. Columns 1, 2, 23 and 24 contain either only DMSO or pharmacological known control inhibitor. Once titrations are made, 2.5 nL of the compounds on 384 well plates are reformatted and transferred by acoustic dispense in quadruplicates to a 1536 assay plate (Greiner) to assay across all four PI3K isoform enzymes.
(§4) The PI3-Kinase biochemical assay was optimized using the HTRF kit provided by Upstate (Millipore). The assay kit contains six reagents: 1) 4× Reaction Buffer; 2) native PIP2 (substrate); 3) Stop (EDTA); 4) Detection Mix A (Streptavidin-APC); 5) Detection Mix B (Eu-labeled Anti-GST plus GST-tagged PH-domain); 6) Detection Mix C. In addition, the following items were obtained or purchased; PI3Kinase (alpha 14-602, beta 14-603, gamma 14-558 and delta 14-604 from Upstate; Millipore), dithiothreitol (Sigma, D-5545), Adenosine-5′ triphosphate (InVitrogen, Cat#AS001A), native PIP3 (PI(3,4,5)P3, diC8, H^+, CELLSIGNALS, INC. Cat #907) DMSO (Sigma, 472301).
(§5) PI3Kinase Reaction Buffer is prepared by dilution the stock 1:4 with de-ionized water. DTT, PIP2 and Biotin-PIP3 were added to 1536 assay plate at a final concentration of 5 mM, […] 25 nM on the day of use. Enzyme addition and compound pre-incubation are initiated by the addition of 1.25 ul of PI3K (at twice its final concentration) in the 1× reaction buffer to all wells using a BioRaptor. Plates are incubated at room temperature for 15 minutes. Reactions are initiated by addition of 1.25 ul of 2× substrate solution (PIP2 and ATP in 1× reaction buffer) using BioRaptor. Plates are incubated in humidified chamber at room temperature for one hour. Reactions are quenched by addition of 0.625 uL of stop solution to all wells using the BioRaptor. The quenched reactions are then processed to detect product formation by adding 0.625 uL of Detection Solution to all wells using the BioRaptor (Detection mix C, Detection Mix A, and Detection Mix B combined together in an 18:1:1 ratio prepared 2 hours prior to use). Following a one hour incubation in the dark, the HTRF signal is measured on the Envision plate reader set for 330 nm excitation and dual emission detection at […]. […]

For another assay, the target named is T2, PI3Kdelta (Homo sapiens, UniProt O00329).
T2 construct: purchased Upstate; Millipore 14-604
The assay is described as follows: HTRF PI3K biochemical assay, delta isoform. The note with it: 0.3 nM enzyme, 100 uM ATP, 5 uM PIP2, form screened (Neutral or TFA salt) given per compound.
From the text: as §1, §2, §3, §4, §5
For orientation: In TR-FRET formats the signal depends on donor and acceptor labels being close together.

T1 sequence (P42336 whole entry): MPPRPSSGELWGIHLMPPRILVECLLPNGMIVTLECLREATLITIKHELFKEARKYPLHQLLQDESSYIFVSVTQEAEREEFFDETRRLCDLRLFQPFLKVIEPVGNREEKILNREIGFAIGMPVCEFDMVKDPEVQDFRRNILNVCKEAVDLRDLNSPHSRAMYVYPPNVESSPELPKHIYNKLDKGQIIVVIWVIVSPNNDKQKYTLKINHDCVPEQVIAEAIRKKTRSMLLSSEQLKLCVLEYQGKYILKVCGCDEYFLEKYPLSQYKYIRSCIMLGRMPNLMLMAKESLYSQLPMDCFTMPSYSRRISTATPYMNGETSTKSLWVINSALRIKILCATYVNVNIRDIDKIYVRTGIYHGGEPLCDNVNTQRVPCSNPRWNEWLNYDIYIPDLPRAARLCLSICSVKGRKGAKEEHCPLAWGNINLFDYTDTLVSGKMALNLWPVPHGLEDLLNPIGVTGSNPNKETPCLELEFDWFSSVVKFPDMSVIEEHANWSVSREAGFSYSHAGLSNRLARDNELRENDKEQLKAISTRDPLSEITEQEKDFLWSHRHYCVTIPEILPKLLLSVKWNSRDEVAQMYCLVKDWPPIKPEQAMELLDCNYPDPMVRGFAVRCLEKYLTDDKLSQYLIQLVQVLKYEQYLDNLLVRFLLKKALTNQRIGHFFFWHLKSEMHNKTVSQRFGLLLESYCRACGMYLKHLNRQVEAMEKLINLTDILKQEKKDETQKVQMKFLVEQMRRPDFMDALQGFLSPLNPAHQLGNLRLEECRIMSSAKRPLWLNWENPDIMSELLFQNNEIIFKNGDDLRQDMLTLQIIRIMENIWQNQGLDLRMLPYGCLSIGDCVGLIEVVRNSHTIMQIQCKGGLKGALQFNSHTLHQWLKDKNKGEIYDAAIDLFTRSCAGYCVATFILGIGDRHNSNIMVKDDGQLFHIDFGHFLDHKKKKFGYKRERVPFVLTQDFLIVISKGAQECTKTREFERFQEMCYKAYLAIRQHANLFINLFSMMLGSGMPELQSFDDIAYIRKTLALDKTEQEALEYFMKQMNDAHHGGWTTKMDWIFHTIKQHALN
T1 sequence (P27986 whole entry partner): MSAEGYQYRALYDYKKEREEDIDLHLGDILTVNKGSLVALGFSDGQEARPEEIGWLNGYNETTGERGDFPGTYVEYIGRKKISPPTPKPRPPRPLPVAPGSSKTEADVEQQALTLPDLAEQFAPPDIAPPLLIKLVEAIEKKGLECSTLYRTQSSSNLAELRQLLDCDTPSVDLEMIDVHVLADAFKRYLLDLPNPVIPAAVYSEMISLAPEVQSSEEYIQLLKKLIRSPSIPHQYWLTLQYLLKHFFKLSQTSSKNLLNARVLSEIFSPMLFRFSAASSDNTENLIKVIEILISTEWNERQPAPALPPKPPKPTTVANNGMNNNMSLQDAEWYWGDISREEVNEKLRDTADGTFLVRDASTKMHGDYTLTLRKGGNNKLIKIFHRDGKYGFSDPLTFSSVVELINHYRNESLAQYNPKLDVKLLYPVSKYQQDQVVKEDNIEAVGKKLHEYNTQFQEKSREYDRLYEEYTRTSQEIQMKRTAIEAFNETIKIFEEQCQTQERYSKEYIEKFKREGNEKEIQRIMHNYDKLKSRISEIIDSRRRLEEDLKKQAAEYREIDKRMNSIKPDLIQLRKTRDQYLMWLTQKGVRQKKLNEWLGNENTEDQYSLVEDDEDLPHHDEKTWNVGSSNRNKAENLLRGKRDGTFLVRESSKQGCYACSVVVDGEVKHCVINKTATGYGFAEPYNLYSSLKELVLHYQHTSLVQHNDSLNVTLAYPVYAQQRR
T2 sequence (O00329 whole entry): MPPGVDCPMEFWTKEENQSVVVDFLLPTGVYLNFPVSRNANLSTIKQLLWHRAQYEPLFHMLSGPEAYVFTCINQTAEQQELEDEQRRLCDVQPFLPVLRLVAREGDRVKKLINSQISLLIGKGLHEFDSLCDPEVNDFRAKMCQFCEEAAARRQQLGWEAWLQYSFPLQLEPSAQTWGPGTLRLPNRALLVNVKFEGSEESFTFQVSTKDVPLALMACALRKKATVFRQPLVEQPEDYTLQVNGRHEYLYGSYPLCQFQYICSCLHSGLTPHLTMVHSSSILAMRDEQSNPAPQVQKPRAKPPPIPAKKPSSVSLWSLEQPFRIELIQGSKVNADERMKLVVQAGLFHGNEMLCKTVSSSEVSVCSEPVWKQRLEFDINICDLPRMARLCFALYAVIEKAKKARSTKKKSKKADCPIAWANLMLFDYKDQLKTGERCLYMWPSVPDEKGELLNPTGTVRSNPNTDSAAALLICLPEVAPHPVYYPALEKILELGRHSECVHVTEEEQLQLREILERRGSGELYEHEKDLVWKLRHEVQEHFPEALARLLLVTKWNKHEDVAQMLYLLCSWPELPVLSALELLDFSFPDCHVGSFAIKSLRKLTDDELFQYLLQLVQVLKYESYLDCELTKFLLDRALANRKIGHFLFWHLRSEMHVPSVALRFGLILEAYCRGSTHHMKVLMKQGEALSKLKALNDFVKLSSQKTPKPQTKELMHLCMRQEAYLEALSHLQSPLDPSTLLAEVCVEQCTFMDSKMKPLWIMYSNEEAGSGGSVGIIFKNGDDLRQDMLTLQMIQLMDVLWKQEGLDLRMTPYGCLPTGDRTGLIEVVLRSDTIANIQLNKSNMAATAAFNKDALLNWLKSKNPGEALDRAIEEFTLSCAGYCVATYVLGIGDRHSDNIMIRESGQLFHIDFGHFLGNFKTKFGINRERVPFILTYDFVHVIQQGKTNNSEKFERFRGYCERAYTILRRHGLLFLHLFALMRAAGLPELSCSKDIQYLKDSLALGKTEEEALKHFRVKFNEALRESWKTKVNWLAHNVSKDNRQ
T2 sequence (P27986 whole entry partner): as the sequence (P27986 whole entry partner) above

As usually defined, the IC50 is the concentration needed to halve the response being measured. On to `CCOC(=O)n1nc(C(C)C)c2c1CCC(Nc1ncnc3c1nc(-c1cnc(C)nc1)n3CC)C2` (racemic) [Compound 2-17, (S and R)-ethyl 5-{[9-ethyl-8-(2-methylpyrimidin-5-yl)-9H-purin-6-yl]amino}-3-(1-methylethyl)-4,5,6,7-tetrahydro-1H-indazole-1-carboxylate], for which the “Selectivity versus PI3Kalpha” value at PI3Kalpha is greater than 10. For the same compound, the IC50 at PI3Kdelta is 2.3 nM.
For `CCn1c(-c2cnc(C)nc2)nc2c(NC3CCc4c(c(C(C)C)nn4C(=O)OC(C)C)C3)ncnc21` (racemic) [Compound 2-18, (S and R)-1-methylethyl 5-{[9-ethyl-8-(2-methylpyrimidin-5-yl)-9H-purin-6-yl]amino}-3-(1-methylethyl)-4,5,6,7-tetrahydro-1H-indazole-1-carboxylate], in that order: greater than 10 and less than 1 nM.
For `CCn1c(-c2cnc(C)nc2)nc2c(NC3CCc4c(c(C(C)C)nn4C(=O)OC(C)(C)C(F)(F)F)C3)ncnc21` (racemic) [Compound 2-20, (S and R)-2,2,2-trifluoro-1,1-dimethylethyl 5-{[9-ethyl-8-(2-methylpyrimidin-5-yl)-9H-purin-6-yl]amino}-3-(1-methylethyl)-4,5,6,7-tetrahydro-1H-indazole-1-carboxylate], in that order: greater than 10 and 2.6 nM.
As to `CCn1c(-c2cnc(C)nc2)nc2c(NC3CCc4c(c(C(C)C)nn4C(=O)NC(C)(C)C)C3)ncnc21` (racemic) [Compound 2-21, (S and R)-N-tert-butyl-5-{[9-ethyl-8-(2-methylpyrimidin-5-yl)-9H-purin-6-yl]amino}-3-(1-methylethyl)-4,5,6,7-tetrahydro-1H-indazole-1-carboxamide], the “Selectivity versus PI3Kalpha” value on PI3Kalpha was greater than 10. Also, the IC50 at PI3Kdelta was 16 nM.
As to `CCn1c(-c2cnc(C)nc2)nc2c(NC3CCc4c(c(C(C)C)nn4-c4ccccn4)C3)ncnc21` (racemic) [Compound 2-22, (S and R)-9-ethyl-N-[3-(1-methylethyl)-1-pyridin-2-yl-4,5,6,7-tetrahydro-1H-indazol-5-yl]-8-(2-methylpyrimidin-5-yl)-9H-purin-6-amine], the “Selectivity versus PI3Kalpha” value at PI3Kalpha was greater than 10. The IC50 at PI3Kdelta amounted to 11 nM.
On the same counts, the results for `CCn1c(-c2cnc(C)nc2)nc2c(NC3CCc4c(c(C(C)C)nn4S(C)(=O)=O)C3)ncnc21` (racemic) [Compound 2-23, (S and R)-9-ethyl-N-[3-(1-methylethyl)-1-(methylsulfonyl)-4,5,6,7-tetrahydro-1H-indazol-5-yl]-8-(2-methylpyrimidin-5-yl)-9H-purin-6-amine] are greater than 10 and less than 1 nM.
On the same counts, the results for `CCn1c(-c2cnc(C)nc2)nc2c(NC3Cc4cnn(Cc5ccccc5)c4C3)ncnc21` (racemic) [Compound 2-26, (S and R)-N-(1-benzyl-1,4,5,6-tetrahydrocyclopenta[c]pyrazol-5-yl)-9-ethyl-8-(2-methylpyrimidin-5-yl)-9H-purin-6-amine] are greater than 10 and 6.1 nM.
On the same counts, the results for `CCc1nn(CC)c2c1CC(Oc1ncnc3c1nc(-c1cnc(C)nc1)n3CC)CC2` (racemic) [Compound 2-27, (S and R)-6-[(1,3-diethyl-4,5,6,7-tetrahydro-1H-indazol-5-yl)oxy]-9-ethyl-8-(2-methylpyrimidin-5-yl)-9H-purine] are greater than 10 and 25 nM.
In the case of `CCc1cnc2n1CC(Oc1ncnc3c1nc(-c1cnc(C)nc1)n3CC)C2` (racemic) [Compound 4-5, (S and R)-9-ethyl-6-[(3-ethyl-6,7-dihydro-5H-pyrrolo[1,2-a]imidazol-6-yl)oxy]-8-(2-methylpyrimidin-5-yl)-9H-purine], the “Selectivity versus PI3Kalpha” value on PI3Kalpha is greater than 10. Further, at PI3Kdelta, the half-inhibitory concentration (IC50) was determined as 550 nM.
For `CCn1c(-c2cnc(C)nc2)nc2c(NC3CCc4nc(Cl)n(C5CC5)c4C3)ncnc21` (racemic) [Compound 5-12, (S and R)-N-(2-chloro-1-cyclopropyl-4,5,6,7-tetrahydro-1H-benzimidazol-6-yl)-9-ethyl-8-(2-methylpyrimidin-5-yl)-9H-purin-6-amine], in that order: greater than 10 and less than 1 nM.
Regarding `CCn1c(-c2cnc(C)nc2)nc2c(NC3CCc4nnc(C5CC5)n4C3)ncnc21` (single isomer, unassigned) [Compound 1-1, (S or R)-N-(3-cyclopropyl-5,6,7,8-tetrahydro[1,2,4]triazolo[4,3-a]pyridin-6-yl)-9-ethyl-8-(2-methylpyrimidin-5-yl)-9H-purin-6-amine], the “Selectivity versus PI3Kalpha” value at PI3Kalpha is listed as greater than 10. Further, the IC50 on PI3Kdelta was 4.2 nM.
As to `CCn1c(-c2cnc(C)nc2)nc2c(NC3CCc4nnc(C5CC5)n4C3)ncnc21` (single isomer, unassigned) [Compound 1-2, (S or R)-N-(3-cyclopropyl-5,6,7,8-tetrahydro[1,2,4]triazolo[4,3-a]pyridin-6-yl)-9-ethyl-8-(2-methylpyrimidin-5-yl)-9H-purin-6-amine], the “Selectivity versus PI3Kalpha” value at PI3Kalpha is recorded as greater than 10. Moreover, the IC50 at PI3Kdelta came out at 65 nM.
On the same counts, the results for `CCn1c(-c2cnc(C)nc2)nc2c(NC3CCc4nnc(-c5ccccc5)n4C3)ncnc21` (single isomer, unassigned) [Compound 1-3, (S or R)-9-ethyl-8-(2-methylpyrimidin-5-yl)-N-[3-phenyl-5,6,7,8-tetrahydro[1,2,4]triazolo[4,3-a]pyridin-6-yl]-9H-purin-6-amine] are greater than 10 and 5.9 nM.
For `CCn1c(-c2cnc(C)nc2)nc2c(NC3CCc4nnc(C(C)C)n4C3)ncnc21` (single isomer, unassigned) [Compound 1-4, (S or R)-9-ethyl-N-[3-(1-methylethyl)-5,6,7.8-tetrahydro[1,2,4]triazolo[4,3-a]pyridin-6-yl]-8-(2-methylpyrimidin-5-yl)-9H-purin-6-amine], in that order: greater than 10 and 46 nM.
With `CCn1c(-c2cnc(C)nc2)nc2c(NC3CCc4nnc(C(C)C)n4C3)ncnc21` (single isomer, unassigned) [Compound 1-5, (S or R)-9-ethyl-N-[3-(1-methylethyl)-5,6,7,8-tetrahydro[1,2,4]triazolo[4,3-a]pyridin-6-yl]-8-(2-methylpyrimidin-5-yl)-9H-purin-6-amine], the “Selectivity versus PI3Kalpha” value on PI3Kalpha is recorded as greater than 10. For the same compound, the IC50 on PI3Kdelta is 1.1 nM.
As to `CCc1nnc2n1CC(Nc1ncnc3c1nc(-c1cnc(C)nc1)n3CC)CC2` (single isomer, unassigned) [Compound 1-6, (S or R)-9-ethyl-N-[3-ethyl-5,6,7,8-tetrahydro[1,2,4]triazolo[4,3-a]pyridin-6-yl]-8-(2-methylpyrimidin-5-yl)-9H-purin-6-amine], at PI3Kalpha, the “Selectivity versus PI3Kalpha” value was greater than 10. The IC50 at PI3Kdelta was found to be 2 nM.
Turning to `CCc1nnc2n1CC(Nc1ncnc3c1nc(-c1cnc(C)nc1)n3CC)CC2` (single isomer, unassigned) [Compound 1-7, (S or R)-9-ethyl-N-[3-ethyl-5,6,7,8-tctrahydro[1,2,4]triazolo[4,3-a]pyridin-6-yl]-8-(2-methylpyrimidin-5-yl)-9H-purin-6-amine], the “Selectivity versus PI3Kalpha” value at PI3Kalpha was greater than 10. In addition, the IC50 at PI3Kdelta stood at 13 nM.
